US12673944B2, “Compounds having inhibitory activity against glucosylceramide synthase or pharmaceutically acceptable salt thereof, processes for preparing the same, and pharmaceutical compositions comprising the same” (YUHAN CORPORATION, priority 2019, dated 2026)

What was measured:
[1] = tested on: GM1 production in Jurkat cells; test: cells; type: cell-based; conditions: Homo sapiens, Jurkat, 72 h
[2] = molecular target: T1, glucosylceramide synthase (GCS) (Homo sapiens, UniProt Q16739); test: GCS enzyme inhibition assay (A549 cell lysate, NBD C6-ceramide, HPLC fluorescence); type: biochemical; conditions: inhibitory activity against GCS, 37° C., 90 minutes
T1 construct: The obtained supernatant was used; host or cells: A549 cells (lysate supernatant after sonication)
T1 sequence (Q16739 1-394): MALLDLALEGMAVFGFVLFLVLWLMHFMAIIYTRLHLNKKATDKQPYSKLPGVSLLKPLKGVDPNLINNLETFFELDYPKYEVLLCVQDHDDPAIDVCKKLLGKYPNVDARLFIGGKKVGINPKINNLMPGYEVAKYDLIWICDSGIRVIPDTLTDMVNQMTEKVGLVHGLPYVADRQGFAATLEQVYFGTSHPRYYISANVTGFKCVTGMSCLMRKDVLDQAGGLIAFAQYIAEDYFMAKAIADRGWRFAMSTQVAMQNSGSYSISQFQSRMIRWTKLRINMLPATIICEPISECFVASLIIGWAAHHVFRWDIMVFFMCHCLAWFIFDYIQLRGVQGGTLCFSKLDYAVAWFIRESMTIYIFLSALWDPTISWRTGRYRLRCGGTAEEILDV
Summary of the method: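 A549 cell lysate (50 mM HEPES pH 7.3) served as GCS source; reactions ran 90 min at 37° C, were stopped with chloroform/methanol and lipids extracted. Activity taken as GlcCer/(Cer+GlcCer) peak area, normalised between DMSO and ibiglustat controls.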

SMILES | IC50 [1] [nM] | IC50 [2] [nM]
CCc1cccc(-c2cc3c(cc2OC)C(NC(=O)O[C@@H]2CN4CCC2CC4)C(C)(C)CO3)c1 (stereo partly drawn) [Example 352, (S)-quinuclidin-3-yl (7-(3-ethylphenyl)-6-methoxy-3,3-dimethylchroman-4-yl)carbamate] | 2 | 0.38
CCc1ccc(-c2cc3c(cc2OC)C(NC(=O)O[C@@H]2CN4CCC2CC4)C(C)(C)CO3)cc1 (stereo partly drawn) [Example 353, (S)-quinuclidin-3-yl (7-(4-ethylphenyl)-6-methoxy-3,3-dimethylchroman-4-yl)carbamate] | 2.3 | 0.33
COc1cccc(-c2cc3c(cc2OC)C(NC(=O)O[C@@H]2CN4CCC2CC4)C(C)(C)CO3)c1 (stereo partly drawn) [Example 354, (S)-quinuclidin-3-yl (6-methoxy-7-(3-methoxyphenyl)-3,3-dimethylchroman-4-yl)carbamate] | 3.1 | 0.63
COc1ccc(-c2cc3c(cc2OC)C(NC(=O)O[C@@H]2CN4CCC2CC4)C(C)(C)CO3)cc1 (stereo partly drawn) [Example 355, (S)-quinuclidin-3-yl (6-methoxy-7-(4-methoxyphenyl)-3,3-dimethylchroman-4-yl)carbamate] | 5.8 | 0.58
CCOc1ccc(-c2cc3c(cc2OC)C(NC(=O)O[C@@H]2CN4CCC2CC4)C(C)(C)CO3)cc1 (stereo partly drawn) [Example 356, (S)-quinuclidin-3-yl (7-(4-ethoxyphenyl)-6-methoxy-3,3-dimethylchroman-4-yl)carbamate] | 3.4 | 0.48
COc1cc2c(cc1-c1ccsc1)OCC(C)(C)C2NC(=O)O[C@@H]1CN2CCC1CC2 (stereo partly drawn) [Example 357, (S)-quinuclidin-3-yl (6-methoxy-3,3-dimethyl-7-(thiophen-3-yl)chroman-4-yl)carbamate] | 4 | 0.45
COc1cc2c(cc1-c1cccc(C(C)C)c1)OCC(C)(C)C2NC(=O)O[C@@H]1CN2CCC1CC2 (stereo partly drawn) [Example 358, (S)-quinuclidin-3-yl (7-(3-isopropylphenyl)-6-methoxy-3,3-dimethylchroman-4-yl)carbamate] | 2 | 0.61
COc1ccc(Cl)c(-c2cc3c(cc2OC)C(NC(=O)O[C@@H]2CN4CCC2CC4)C(C)(C)CO3)c1 (stereo partly drawn) [Example 359, (S)-quinuclidin-3-yl (7-(2-chloro-5-methoxyphenyl)-6-methoxy-3,3-dimethylchroman-4-yl)carbamate] | 2.4 | 0.62
COc1ccc(-c2cc3c(cc2OC)C(NC(=O)O[C@@H]2CN4CCC2CC4)C(C)(C)CO3)c(F)c1 (stereo partly drawn) [Example 360, (S)-quinuclidin-3-yl (7-(2-fluoro-4-methoxyphenyl)-6-methoxy-3,3-dimethylchroman-4-yl)carbamate] | 10 | 0.55
COc1ccc(-c2cc3c(cc2OC)C(NC(=O)O[C@@H]2CN4CCC2CC4)C(C)(C)CO3)c(C)c1 (stereo partly drawn) [Example 361, (S)-quinuclidin-3-yl (6-methoxy-7-(4-methoxy-2-methylphenyl)-3,3-dimethylchroman-4-yl)carbamate] | 8.5 | 0.99
CCCCc1ccc(-c2cc3c(cc2OC)C(NC(=O)O[C@@H]2CN4CCC2CC4)C(C)(C)CO3)cc1 (stereo partly drawn) [Example 362, (S)-quinuclidin-3-yl (7-(4-butylphenyl)-6-methoxy-3,3-dimethylchroman-4-yl)carbamate] | 0.7 | 0.11
COc1cc2c(cc1-c1ccc(OC(C)C)c(Cl)c1)OCC(C)(C)C2NC(=O)O[C@@H]1CN2CCC1CC2 (stereo partly drawn) [Example 363, (S)-quinuclidin-3-yl (7-(3-chloro-4-isopropoxyphenyl)-6-methoxy-3,3-dimethylchroman-4-yl)carbamate] | 8.7 | 0.75
COc1cc2c(cc1-c1ccc(C(C)(C)C)cc1)OCC(C)(C)C2NC(=O)O[C@@H]1CN2CCC1CC2 (stereo partly drawn) [Example 364, (S)-quinuclidin-3-yl (7-(4-(tert-butyl)phenyl)-6-methoxy-3,3-dimethylchroman-4-yl)carbamate] | 2 | 0.43
COc1cc2c(cc1-c1cc(C)c(OC)c(C)c1)OCC(C)(C)C2NC(=O)O[C@@H]1CN2CCC1CC2 (stereo partly drawn) [Example 365, (S)-quinuclidin-3-yl (6-methoxy-7-(4-methoxy-3,5-dimethylphenyl)-3,3-dimethylchroman-4-yl)carbamate] | 14.5 | 1.2
COc1cc2c(cc1-c1ccc(OCC(C)C)cc1)OCC(C)(C)C2NC(=O)O[C@@H]1CN2CCC1CC2 (stereo partly drawn) [Example 366, (S)-quinuclidin-3-yl (7-(4-isobutoxyphenyl)-6-methoxy-3,3-dimethylchroman-4-yl)carbamate] | 0.7 | 0.19
COc1cc2c(cc1-c1ccc(OC(C)C)nc1)OCC(C)(C)C2NC(=O)O[C@@H]1CN2CCC1CC2 (stereo partly drawn) [Example 367, (S)-quinuclidin-3-yl (7-(6-isopropoxypyridin-3-yl)-6-methoxy-3,3-dimethylchroman-4-yl)carbamate] | 3.2 | 0.22
